Columns and labels:
Type in all cases: in vivo
[1] = system: morningglory (Ipomoea coccinea); test: Test C greenhouse herbicide test, pre- and postemergence
Outline: (§1)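 Visual 0–100 injury score (100 = complete control) taken against untreated controls after 13–15 d in greenhouse. Test chemicals, formulated in solvent plus surfactant, applied preemergence to seeds in loam–sand soil or postemergence to 1- to 4-leaf plants (2–18 cm).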

[2] = system: wheat (winter wheat, Triticum aestivum); test: as above
Outline: as §1

[3] = system: lambsquarters (Chenopodium album); test: as above
Outline: as §1

[4] = system: oilseed rape (Brassica napus); test: as above
Outline: as §1

corn (Zea mays) = test: as above
Outline: as §1

[5] = system: waterhemp (common waterhemp, Amaranthus rudis); test: as above
Outline: as §1

[6] = system: crabgrass, large (large crabgrass, Digitaria sanguinalis); test: as above
Outline: as §1

[7] = system: johnsongrass (Sorghum halepense); test: as above
Outline: as §1

[8] = system: foxtail, giant (giant foxtail, Setaria faberii); test: as above
Outline: as §1

[9] = system: barnyardgrass (Echinochloa crus-galli); test: Test A greenhouse herbicide test, pre- and postemergence
Outline: (§2)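 Visual injury ratings, 0 (no effect) to 100 (complete control), versus untreated plants after roughly 10 d in a greenhouse. Compounds, formulated in a surfactant-containing non-phytotoxic solvent, were sprayed on loam–sand soil after sowing (pre) or on one- to two-leaf plants 2–10 cm tall (post).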

kochia (Kochia scoparia) = test: as above
Outline: as §2

[10] = Postemergence, 31 g ai/ha, 0 to 100 scale (0 no effect, 100 complete control)
[11] = Postemergence, 125 g ai/ha, scale 0 to 100, 0 is no effect, 100 is complete control
[12] = Postemergence, 250 g ai/ha, scale 0 to 100, 0 no effect, 100 complete control, 13 to 15 d
[13] = Preemergence, 31 g ai/ha, scale 0 to 100, 0 is no effect, 100 is complete control
[14] = Preemergence, 62 g ai/ha, scale 0 to 100, 0 is no effect, 100 is complete control
[15] = Preemergence, 125 g ai/ha, scale 0 to 100, 0 is no effect, 100 is complete control
[16] = Preemergence, 250 g ai/ha, scale 0 to 100, 0 no effect, 100 complete control
[17] = postemergence, 62 g ai/ha, scale 0 to 100, 0 no effect, 100 complete control
[18] = Postemergence, 125 g ai/ha, visual rating after approx. 10 d, 0 to 100 scale (0 no effect, 100 complete control)
[19] = Postemergence, 500 g ai/ha, 0 to 100 scale, 0 is no effect, 100 is complete control
[20] = Preemergence, 125 g ai/ha, 0 to 100 scale where 0 is no effect and 100 is complete control
[21] = Preemergence, 500 g ai/ha, 0 to 100 scale, 0 no effect, 100 complete control

With Cc1cc2ccccc2c(-c2c(O)c(C)nn(C)c2=O)c1C [Compound 34] the “Morningglory plant response rating” value [1, 10] was 85, the “Plant response rating, Morningglory” value [1, 11] was 95 and the “Plant response rating, Morningglory” value [1, 12] was 98. The “Plant response rating, Morningglory” value [1, 13] was 70, the “Plant response rating, Morningglory” value [1, 14] was 80 and the “Plant response rating, Morningglory” value [1, 15] was 85. The “Morningglory plant response rating” value [1, 16] was 95, the “Morningglory plant response rating” value [1, 17] was 98 and the “Wheat plant response rating” value [2, 10] was 5. For the same compound, the “Plant response rating, Wheat” value [2, 11] was 10, the “Plant response rating, Wheat” value [2, 12] was 0 and the “Plant response rating, Wheat” value [2, 14] was 0. For the same compound, the “Plant response rating, Wheat” value [2, 15] was 5, the “Wheat plant response rating” value [2, 16] was 25 and the “Wheat plant response rating” value [2, 17] was 5. For the same compound, the “Lambsquarters plant response rating” value [3, 10] was 90, the “Plant response rating, Lambsquarters” value [3, 11] was 95 and the “Plant response rating, Lambsquarters” value [3, 12] was 100. For the same compound, the “Plant response rating, Lambsquarters” value [3, 13] was 80, the “Plant response rating, Lambsquarters” value [3, 14] was 90 and the “Plant response rating, Lambsquarters” value [3, 15] was 80. The “Lambsquarters plant response rating” value [3, 16] was 75, the “Lambsquarters plant response rating” value [3, 17] was 90 and the “Oilseed Rape plant response rating” value [4, 10] was 30. The “Plant response rating, Oilseed Rape” value [4, 11] was 50, the “Plant response rating, Oilseed Rape” value [4, 12] was 20 and the “Plant response rating, Oilseed Rape” value [4, 13] was 10. The “Plant response rating, Oilseed Rape” value [4, 14] was 25, the “Plant response rating, Oilseed Rape” value [4, 15] was 90 and the “Oilseed Rape plant response rating” value [4, 16] was 90. The “Oilseed Rape plant response rating” value [4, 17] was 30, the “Corn plant response rating” value (corn (Zea mays); [10]) was 0 and the “Plant response rating, Corn” value (corn (Zea mays); [11]) was 5. The “Plant response rating, Corn” value (corn (Zea mays); [12]) was 5, the “Plant response rating, Corn” value (corn (Zea mays); [13]) was 0 and the “Plant response rating, Corn” value (corn (Zea mays); [14]) was 0. The “Plant response rating, Corn” value (corn (Zea mays); [15]) was 10, the “Corn plant response rating” value (corn (Zea mays); [16]) was 0 and the “Corn plant response rating” value (corn (Zea mays); [17]) was 5. The “Waterhemp plant response rating” value [5, 10] was 85, the “Plant response rating, Waterhemp” value [5, 11] was 90 and the “Plant response rating, Waterhemp” value [5, 12] was 98. The “Plant response rating, Waterhemp” value [5, 14] was 100, the “Plant response rating, Waterhemp” value [5, 15] was 100 and the “Waterhemp plant response rating” value [5, 16] was 100. For the same compound, the “Waterhemp plant response rating” value [5, 17] was 85, the “Crabgrass, Large plant response rating” value [6, 10] was 5 and the “Plant response rating, Crabgrass, Large” value [6, 11] was 20. The “Plant response rating, Crabgrass, Large” value [6, 12] was 25, the “Plant response rating, Crabgrass, Large” value [6, 13] was 0 and the “Plant response rating, Crabgrass, Large” value [6, 14] was 10. The “Plant response rating, Crabgrass, Large” value [6, 15] was 25, the “Crabgrass, Large plant response rating” value [6, 16] was 30 and the “Crabgrass, Large plant response rating” value [6, 17] was 10. The “Johnsongrass plant response rating” value [7, 10] was 5, the “Plant response rating, Johnsongrass” value [7, 11] was 5 and the “Plant response rating, Johnsongrass” value [7, 12] was 5. For the same compound, the “Plant response rating, Johnsongrass” value [7, 13] was 0, the “Plant response rating, Johnsongrass” value [7, 14] was 0 and the “Plant response rating, Johnsongrass” value [7, 15] was 0. For the same compound, the “Johnsongrass plant response rating” value [7, 16] was 20, the “Johnsongrass plant response rating” value [7, 17] was 5 and the “Foxtail, Giant plant response rating” value [8, 10] was 10. For the same compound, the “Plant response rating, Foxtail, Giant” value [8, 11] was 25, the “Plant response rating, Foxtail, Giant” value [8, 12] was 35 and the “Plant response rating, Foxtail, Giant” value [8, 13] was 0. For the same compound, the “Plant response rating, Foxtail, Giant” value [8, 14] was 65, the “Plant response rating, Foxtail, Giant” value [8, 15] was 75 and the “Foxtail, Giant plant response rating” value [8, 16] was 70. For the same compound, the “Foxtail, Giant plant response rating” value [8, 17] was 20, the “Plant response rating, Barnyardgrass” value [9, 18] was 30 and the “Barnyardgrass plant response rating” value [9, 19] was 90. The “Barnyardgrass plant response rating” value [9, 20] was 20, the “Plant response rating, Barnyardgrass” value [9, 21] was 80 and the “Plant response rating, Kochia” value (kochia (Kochia scoparia); [18]) was 70. The “Kochia plant response rating” value (kochia (Kochia scoparia); [19]) was 80, the “Kochia plant response rating” value (kochia (Kochia scoparia); [20]) was 30 and the “Plant response rating, Kochia” value (kochia (Kochia scoparia); [21]) was 60.

— US10597388B2, “Pyridazinone herbicides” (FMC CORPORATION, priority 2014, dated 2020)
